Measurements taken from ChEMBL document CHEMBL4266064, “B-973, a Novel α7 nAChR Ago-PAM: Racemic and Asymmetric Synthesis, Electrophysiological Studies, and in Vivo Evaluation” (ACS Med Chem Lett, 2018).
The source made the active and inactive calls. No cut-off for these calls is given here.

Legend:
[1] = biological target: Neuronal acetylcholine receptor subunit alpha-7 (Homo sapiens) (UniProt P36544); test: (§1) Positive allosteric modulation of human alpha7 nAChR expressed in Xenopus laevis oocytes assessed as increase in acetyl choline-evoked currents at 10 to 100 uM treated for 21 secs followed by compound washout measured after 181 secs by electrophysiology method; assay type: cell-based
[2] = biological target: Neuronal acetylcholine receptor subunit alpha-7 (Homo sapiens) (UniProt P36544); test: as §1, with “at” for “at 10 to”, “pretreated followed by co-treatment with acetyl choline” for “treated”, “and subsequent” for “followed by”; assay type: cell-based
[3] = biological target: Neuronal acetylcholine receptor subunit alpha-7 (Homo sapiens) (UniProt P36544); test: as §1, with “10” for “10 to 100”, “pretreated followed by co-treatment with acetyl choline” for “treated”, “and subsequent” for “followed by”; assay type: cell-based
Mus musculus [4] = test: Antinociceptive activity in formalin-induced nociception pain ICR mouse model assessed as reduction in time spent licking in hind paw at 10 mg/kg, ip administered 15 mins prior to formalin challenge measured up to 5 mins; assay type: functional, organism-based
Mus musculus [5] = test: Antinociceptive activity in ip dosed formalin-induced nociception pain ICR mouse model assessed as reduction in time spent licking in hind paw administered 15 mins prior to formalin challenge measured after 20 to 45 mins; assay type: functional, organism-based
Mus musculus [6] = test: Antinociceptive activity in formalin-induced nociception pain ICR mouse model assessed as reduction in paw edema at 3 to 10 mg/kg, ip administered 15 mins prior to formalin challenge measured after 1 hr by calliper method; assay type: functional, organism-based
Mus musculus [7] = test: Antinociceptive activity in formalin-induced nociception pain ICR mouse model assessed as reduction in time spent licking in hind paw at 10 mg/kg, ip administered 15 mins prior to formalin challenge measured up to 5 mins in presence of alpha7 nAChR antagonist MLA; assay type: functional, organism-based
Mus musculus [8] = test: Antinociceptive activity in formalin-induced nociception pain ICR mouse model assessed as reduction in time spent licking in hind paw at 10 mg/kg, ip administered 15 mins prior to formalin challenge measured after 20 to 45 mins in presence of alpha7 nAChR antagonist MLA; assay type: functional, organism-based

Neuronal acetylcholine receptor subunit alpha-7 (Homo sapiens), sequence (P36544 whole entry): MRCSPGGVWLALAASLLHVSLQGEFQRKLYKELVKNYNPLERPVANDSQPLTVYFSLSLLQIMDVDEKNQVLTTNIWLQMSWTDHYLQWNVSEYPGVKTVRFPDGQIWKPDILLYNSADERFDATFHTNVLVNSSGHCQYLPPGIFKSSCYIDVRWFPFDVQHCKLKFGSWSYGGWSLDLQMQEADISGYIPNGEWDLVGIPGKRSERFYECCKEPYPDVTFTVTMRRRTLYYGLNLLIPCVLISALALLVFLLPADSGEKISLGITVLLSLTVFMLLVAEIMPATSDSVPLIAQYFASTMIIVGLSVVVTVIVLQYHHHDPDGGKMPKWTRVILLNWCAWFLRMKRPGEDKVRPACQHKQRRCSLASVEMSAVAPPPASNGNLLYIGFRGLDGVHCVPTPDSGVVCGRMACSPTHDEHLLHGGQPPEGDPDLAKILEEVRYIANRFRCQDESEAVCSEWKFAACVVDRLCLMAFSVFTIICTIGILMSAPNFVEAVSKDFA

Activity [1]	Activity [2]	Activity [3]	Compound	Activity (Mus musculus [4])	Activity (Mus musculus [5])	Activity (Mus musculus [6])	Activity (Mus musculus [7])	Activity (Mus musculus [8])
inactive	inactive	–	C[C@@H](NC(=O)CCc1ccc(F)c(F)c1)c1cncc(N2CCN(c3ccccn3)CC2)n1	–	–	–	–	–
Active	Active	Active	C[C@H](NC(=O)CCc1ccc(F)c(F)c1)c1cncc(N2CCN(c3ccccn3)CC2)n1	Active	Dose-dependent effect	Active	inactive	inactive
